Measurements reported in PubChem BioAssay (NCI).
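48-hour exposure; five concentrations; linearly interpolated endpoints. At the GI50, growth is halved. TGI marks complete inhibition of growth.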

Columns and labels:
Assay in all cases: inhibition of tumour cell growth, NCI panel, 48 h
786-0 renal = system: 786-0 renal
A498 renal = system: A498 renal
A549 NSCLC = system: A549 NSCLC
ACHN renal = system: ACHN renal
BT-549 breast = system: BT-549 breast
CAKI-1 renal = system: CAKI-1 renal
CCRF-CEM leukemia = system: CCRF-CEM leukemia
COLO 205 colon = system: COLO 205 colon
DU-145 prostate = system: DU-145 prostate
EKVX NSCLC = system: EKVX NSCLC
HCC-2998 colon = system: HCC-2998 colon
HCT-116 colon = system: HCT-116 colon
HCT-15 colon = system: HCT-15 colon
HL-60(TB) leukemia = system: HL-60(TB) leukemia
HOP-62 NSCLC = system: HOP-62 NSCLC
HOP-92 NSCLC = system: HOP-92 NSCLC
HS 578T breast = system: HS 578T breast
HT29 colon = system: HT29 colon
IGROV1 ovarian = system: IGROV1 ovarian
K-562 leukemia = system: K-562 leukemia
KM12 colon = system: KM12 colon
LOX IMVI melanoma = system: LOX IMVI melanoma
M14 melanoma = system: M14 melanoma
MALME-3M melanoma = system: MALME-3M melanoma
MCF7 breast = system: MCF7 breast
MDA-MB-231 breast = system: MDA-MB-231 breast
MDA-MB-435 = system: MDA-MB-435
MOLT-4 leukemia = system: MOLT-4 leukemia
NCI-H226 lung = system: NCI-H226 lung
NCI-H23 lung = system: NCI-H23 lung
NCI-H460 lung = system: NCI-H460 lung
NCI-H522 lung = system: NCI-H522 lung
NCI/ADR-RES ovarian = system: NCI/ADR-RES ovarian
OVCAR-3 ovarian = system: OVCAR-3 ovarian
OVCAR-4 ovarian = system: OVCAR-4 ovarian
OVCAR-5 ovarian = system: OVCAR-5 ovarian
OVCAR-8 ovarian = system: OVCAR-8 ovarian
PC-3 prostate = system: PC-3 prostate
RPMI-8226 leukemia = system: RPMI-8226 leukemia
RXF 393 renal = system: RXF 393 renal
SF-268 CNS = system: SF-268 CNS
SF-295 CNS = system: SF-295 CNS
SF-539 CNS = system: SF-539 CNS
SK-MEL-2 melanoma = system: SK-MEL-2 melanoma
SK-MEL-28 melanoma = system: SK-MEL-28 melanoma
SK-MEL-5 melanoma = system: SK-MEL-5 melanoma
SK-OV-3 ovarian = system: SK-OV-3 ovarian
SN12C renal = system: SN12C renal
SNB-19 CNS = system: SNB-19 CNS
SNB-75 CNS = system: SNB-75 CNS
SR leukemia = system: SR leukemia
SW-620 colon = system: SW-620 colon
T-47D breast = system: T-47D breast
TK-10 renal = system: TK-10 renal
U251 CNS = system: U251 CNS
UACC-257 melanoma = system: UACC-257 melanoma
UACC-62 melanoma = system: UACC-62 melanoma
UO-31 renal = system: UO-31 renal

## CCCCCCCCCc1cc[n+](CC(=O)c2ccc([N+](=O)[O-])cc2)cc1
786-0 renal
  GI50: 1.75 µM
  TGI: 3.25 µM
A498 renal
  GI50: 1.26 µM
  TGI: 3.14 µM
A549 NSCLC
  GI50: 1.64 µM
  TGI: 3.13 µM
ACHN renal
  GI50: 1.42 µM
  TGI: 2.82 µM
BT-549 breast
  GI50: 1.27 µM
  TGI: 2.72 µM
CAKI-1 renal
  GI50: 3.19 µM
  TGI: 12 µM
CCRF-CEM leukemia
  GI50: 1.95 µM
  TGI: 5.01 µM
COLO 205 colon
  GI50: 0.344 µM
  TGI: 1.45 µM
DU-145 prostate
  GI50: 0.729 µM
  TGI: 2.04 µM
EKVX NSCLC
  GI50: 0.914 µM
  TGI: 2.55 µM
HCC-2998 colon
  GI50: 0.514 µM
  TGI: 1.93 µM
HCT-116 colon
  GI50: 0.373 µM
  TGI: 1.43 µM
HCT-15 colon
  GI50: 1.19 µM
  TGI: 2.57 µM
HL-60(TB) leukemia
  GI50: 1.7 µM
  TGI: 3.64 µM
HOP-62 NSCLC
  GI50: 1.05 µM
  TGI: 2.39 µM
HOP-92 NSCLC
  GI50: 0.234 µM
  TGI: 1.03 µM
HS 578T breast
  GI50: 1.69 µM
  TGI: 4.51 µM
HT29 colon
  GI50: 0.313 µM
  TGI: 1.29 µM
IGROV1 ovarian
  GI50: 1.66 µM
  TGI: 3.29 µM
K-562 leukemia
  GI50: 0.338 µM
  TGI: 2.02 µM
KM12 colon
  GI50: 0.569 µM
  TGI: 1.97 µM
LOX IMVI melanoma
  GI50: 1.66 µM
  TGI: 3.19 µM
M14 melanoma
  GI50: 0.553 µM
  TGI: 2.14 µM
MALME-3M melanoma
  GI50: 1.41 µM
  TGI: 3.03 µM
MCF7 breast
  GI50: 0.397 µM
  TGI: 1.79 µM
MDA-MB-231 breast
  GI50: 0.447 µM
  TGI: 1.7 µM
MDA-MB-435
  GI50: 0.391 µM
  TGI: 1.56 µM
MOLT-4 leukemia
  GI50: 2.1 µM
  TGI: 5.27 µM
NCI-H226 lung
  GI50: 0.535 µM
  TGI: 2.15 µM
NCI-H23 lung
  GI50: 1.01 µM
  TGI: 2.56 µM
NCI-H460 lung
  GI50: 1.53 µM
  TGI: 3.08 µM
NCI-H522 lung
  GI50: 1.36 µM
  TGI: 2.87 µM
NCI/ADR-RES ovarian
  GI50: 2.17 µM
  TGI: 4.92 µM
OVCAR-3 ovarian
  GI50: 1.04 µM
  TGI: 2.28 µM
OVCAR-4 ovarian
  GI50: 0.78 µM
  TGI: 2.57 µM
OVCAR-5 ovarian
  GI50: 1.16 µM
  TGI: 2.52 µM
OVCAR-8 ovarian
  GI50: 0.604 µM
  TGI: 2.13 µM
PC-3 prostate
  GI50: 0.552 µM
  TGI: 1.88 µM
RPMI-8226 leukemia
  GI50: 0.439 µM
  TGI: 2.15 µM
RXF 393 renal
  GI50: 0.754 µM
  TGI: 2.15 µM
SF-268 CNS
  GI50: 1.34 µM
  TGI: 2.81 µM
SF-295 CNS
  GI50: 1.44 µM
  TGI: 2.79 µM
SF-539 CNS
  GI50: 1.65 µM
  TGI: 3.1 µM
SK-MEL-2 melanoma
  GI50: 0.565 µM
  TGI: 2.06 µM
SK-MEL-28 melanoma
  GI50: 1.11 µM
  TGI: 2.39 µM
SK-MEL-5 melanoma
  GI50: 0.42 µM
  TGI: 1.54 µM
SK-OV-3 ovarian
  GI50: 1.66 µM
  TGI: 3.18 µM
SN12C renal
  GI50: 0.581 µM
  TGI: 1.9 µM
SNB-19 CNS
  GI50: 0.478 µM
  TGI: 1.8 µM
SNB-75 CNS
  GI50: 1.12 µM
  TGI: 2.36 µM
SR leukemia
  GI50: 0.612 µM
  TGI: 4.48 µM
SW-620 colon
  GI50: 0.403 µM
  TGI: 1.63 µM
T-47D breast
  GI50: 1.63 µM
  TGI: 3.64 µM
TK-10 renal
  GI50: 1.47 µM
  TGI: 2.88 µM
U251 CNS
  GI50: 0.457 µM
  TGI: 1.76 µM
UACC-257 melanoma
  GI50: 1.47 µM
  TGI: 3.2 µM
UACC-62 melanoma
  GI50: 1.23 µM
  TGI: 2.54 µM
UO-31 renal
  GI50: 1.48 µM
  TGI: 2.9 µM

## Nc1ccccc1NC(=O)c1ccc(CCCC(=O)Nc2ccc(C3CC3N)cc2)cc1 (stereo not given)
786-0 renal
  GI50: 3.5 µM
  TGI: 39.3 µM
A498 renal
  GI50: 0.747 µM
  TGI: 2.74 µM
A549 NSCLC
  GI50: 4.38 µM
  TGI: > 100 µM
ACHN renal
  GI50: 4.3 µM
  TGI: 33.5 µM
BT-549 breast
  GI50: 3.09 µM
  TGI: 37.9 µM
CAKI-1 renal
  GI50: 2.46 µM
  TGI: 14.4 µM
CCRF-CEM leukemia
  GI50: 2.63 µM
  TGI: > 100 µM
COLO 205 colon
  GI50: 0.765 µM
  TGI: 2.89 µM
DU-145 prostate
  GI50: 2.66 µM
  TGI: 18.5 µM
EKVX NSCLC
  GI50: 4.47 µM
  TGI: > 100 µM
HCC-2998 colon
  GI50: 1.72 µM
  TGI: 5.65 µM
HCT-116 colon
  GI50: 0.375 µM
  TGI: 16 µM
HCT-15 colon
  GI50: 18.8 µM
  TGI: > 100 µM
HL-60(TB) leukemia
  GI50: 0.725 µM
  TGI: 65.2 µM
HOP-62 NSCLC
  GI50: 2.01 µM
  TGI: 20.7 µM
HOP-92 NSCLC
  GI50: 0.359 µM
  TGI: 4.21 µM
HS 578T breast
  GI50: 2.82 µM
  TGI: > 100 µM
HT29 colon
  GI50: 0.995 µM
  TGI: > 100 µM
IGROV1 ovarian
  GI50: 4.24 µM
  TGI: > 100 µM
K-562 leukemia
  GI50: 0.658 µM
  TGI: > 100 µM
KM12 colon
  GI50: 3.63 µM
  TGI: > 100 µM
LOX IMVI melanoma
  GI50: 1.45 µM
  TGI: 3.47 µM
M14 melanoma
  GI50: 2.01 µM
  TGI: 15.4 µM
MALME-3M melanoma
  GI50: 0.559 µM
  TGI: 7.2 µM
MCF7 breast
  GI50: 1.71 µM
  TGI: > 100 µM
MDA-MB-231 breast
  GI50: 2.77 µM
  TGI: 48 µM
MDA-MB-435
  GI50: 1.57 µM
  TGI: 9.05 µM
MOLT-4 leukemia
  GI50: 1.87 µM
  TGI: > 100 µM
NCI-H226 lung
  GI50: 1.85 µM
  TGI: 69.4 µM
NCI-H23 lung
  GI50: 2.29 µM
  TGI: 33.8 µM
NCI-H460 lung
  GI50: 2.63 µM
  TGI: > 100 µM
NCI-H522 lung
  GI50: 0.673 µM
  TGI: 5.12 µM
NCI/ADR-RES ovarian
  GI50: 45.7 µM
  TGI: > 100 µM
OVCAR-3 ovarian
  GI50: 1.91 µM
  TGI: 11.3 µM
OVCAR-4 ovarian
  GI50: 2.21 µM
  TGI: 26.4 µM
OVCAR-5 ovarian
  GI50: 0.925 µM
  TGI: 37.6 µM
OVCAR-8 ovarian
  GI50: 1.32 µM
  TGI: > 100 µM
PC-3 prostate
  GI50: 2.32 µM
  TGI: 95.3 µM
RPMI-8226 leukemia
  GI50: 2.79 µM
  TGI: 24.2 µM
RXF 393 renal
  GI50: 1.65 µM
  TGI: 4.1 µM
SF-268 CNS
  GI50: 1.83 µM
  TGI: 23 µM
SF-295 CNS
  GI50: 1.96 µM
  TGI: 9.43 µM
SF-539 CNS
  GI50: 0.972 µM
  TGI: 70.9 µM
SK-MEL-2 melanoma
  GI50: 1.55 µM
  TGI: 7.26 µM
SK-MEL-28 melanoma
  GI50: 1.31 µM
  TGI: 11.3 µM
SK-MEL-5 melanoma
  GI50: 0.716 µM
  TGI: 2.21 µM
SK-OV-3 ovarian
  GI50: 2.15 µM
  TGI: 42.4 µM
SN12C renal
  GI50: 3.62 µM
  TGI: > 100 µM
SNB-19 CNS
  GI50: 3.81 µM
  TGI: > 100 µM
SNB-75 CNS
  GI50: 1.89 µM
  TGI: 50.4 µM
SR leukemia
  GI50: 0.738 µM
  TGI: > 100 µM
SW-620 colon
  GI50: 1.08 µM
  TGI: 29.5 µM
T-47D breast
  GI50: 0.562 µM
  TGI: > 100 µM
TK-10 renal
  GI50: 0.36 µM
  TGI: 26.8 µM
U251 CNS
  GI50: 1.34 µM
  TGI: 4.06 µM
UACC-62 melanoma
  GI50: 0.573 µM
  TGI: 3.03 µM
UO-31 renal
  GI50: 4.62 µM
  TGI: 20.6 µM
